ChEMBL document CHEMBL5252617, “Design, synthesis and biological evaluation of novel N-(methyl-d3) pyridazine-3-carboxamide derivatives as TYK2 inhibitors” (Bioorg Med Chem Lett, 2023)
Active and inactive are the calls of the source. The rule behind the calls is not given here.

How the values were obtained:
[1] = biological target: T1, Non-receptor tyrosine-protein kinase TYK2 (Homo sapiens, UniProt P29597); experiment: Inhibition of TYK2 dependent IFNalpha-stimulated STAT3 phosphorylation in human Jurkat cells; type: cell-based
T1 sequence (P29597 whole entry): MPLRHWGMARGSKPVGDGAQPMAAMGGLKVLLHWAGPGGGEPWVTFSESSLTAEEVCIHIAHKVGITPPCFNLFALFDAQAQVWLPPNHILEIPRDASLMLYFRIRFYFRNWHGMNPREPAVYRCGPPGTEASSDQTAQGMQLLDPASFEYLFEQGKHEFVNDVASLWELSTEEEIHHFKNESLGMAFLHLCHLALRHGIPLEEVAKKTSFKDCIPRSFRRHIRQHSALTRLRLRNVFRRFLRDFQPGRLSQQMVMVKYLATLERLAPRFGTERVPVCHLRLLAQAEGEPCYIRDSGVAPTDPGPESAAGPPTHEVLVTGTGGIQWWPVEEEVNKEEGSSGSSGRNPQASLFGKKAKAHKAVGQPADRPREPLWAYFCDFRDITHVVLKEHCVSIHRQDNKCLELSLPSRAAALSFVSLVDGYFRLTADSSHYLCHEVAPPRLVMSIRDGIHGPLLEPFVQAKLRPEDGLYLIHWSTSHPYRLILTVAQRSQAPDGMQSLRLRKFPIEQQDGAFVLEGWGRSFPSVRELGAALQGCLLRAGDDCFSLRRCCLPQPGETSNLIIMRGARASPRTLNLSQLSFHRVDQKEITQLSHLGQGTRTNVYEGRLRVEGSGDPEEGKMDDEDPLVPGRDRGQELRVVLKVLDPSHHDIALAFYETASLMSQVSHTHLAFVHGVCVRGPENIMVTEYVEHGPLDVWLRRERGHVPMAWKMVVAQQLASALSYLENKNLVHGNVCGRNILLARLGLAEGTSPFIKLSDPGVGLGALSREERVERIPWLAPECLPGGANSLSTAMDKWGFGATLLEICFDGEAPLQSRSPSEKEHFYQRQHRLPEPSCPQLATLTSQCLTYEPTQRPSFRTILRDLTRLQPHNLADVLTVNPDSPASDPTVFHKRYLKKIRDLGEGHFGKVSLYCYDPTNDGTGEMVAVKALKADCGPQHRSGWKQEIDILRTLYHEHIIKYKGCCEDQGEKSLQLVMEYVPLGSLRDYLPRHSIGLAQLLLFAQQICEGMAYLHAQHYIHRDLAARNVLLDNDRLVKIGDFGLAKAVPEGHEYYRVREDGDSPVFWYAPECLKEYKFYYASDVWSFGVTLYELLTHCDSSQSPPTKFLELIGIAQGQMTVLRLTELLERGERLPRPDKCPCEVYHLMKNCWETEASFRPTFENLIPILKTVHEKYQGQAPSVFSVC

[2] = Stability in human liver microsomes assessed as parent compound remaining measured after 60 mins; type: ADME, Microsome; conditions: read-out: Stability
[3] = Stability in mouse liver microsomes assessed as parent compound remaining measured after 60 mins; type: ADME, Microsome; conditions: read-out: Stability
[4] = biological target: T1, Non-receptor tyrosine-protein kinase TYK2; experiment: Binding affinity to TYK2 JH2 domain (unknown origin) assessed as melting temperature at 10 uM by thermal shift assay; conditions: tested as the 2H-labelled form
[5] = biological target: T1, Non-receptor tyrosine-protein kinase TYK2; experiment: Binding affinity to TYK2 JH2 domain (unknown origin) assessed as melting temperature at 1 uM by thermal shift assay; conditions: tested as the 2H-labelled form
Mus musculus = experiment: Anti-colitis activity against anti-CD40 induced immunodeficient Rag1 KO colitis mouse model assessed as decrease in colon weight at 15 to 30 mg/kg, po bid; type: functional, organism-based; conditions: dose 15-30 mg/kg, tested as the 2H-labelled form

Row | Structure (SMILES) | IC50 [1] | remaining at 1 h [2] | remaining at 1 h [3] | Tm [4] | Tm [5] | Activity (Mus musculus)
1 | [2H]C([2H])([2H])NC(=O)c1nnc(NC(=O)C2CC2)cc1Nc1cccc(C(=O)Nc2ccc(-c3cccnc3)cc2)c1OC | 24 nM |  |  |  |  | 
2 | [2H]C([2H])([2H])NC(=O)c1nnc(NC(=O)C2CC2)cc1Nc1cccc(C(=O)Nc2ccc(N3CCCCC3=O)c(Cl)c2)c1OC | 3.1 nM | 0.06% | 4.53% |  |  | 
3 | CNC(=O)c1nnc(NC(=O)C2CC2)cc1Nc1cccc(C(=O)Nc2ccc(-n3ccccc3=O)cc2)c1OC |  |  |  | 62.2 °C | 56 °C | 
4 | CNC(=O)c1nnc(NC(=O)C2CC2)cc1Nc1cccc(C(=O)Nc2ccc(-c3ccc(F)c(=O)[nH]3)cc2)c1OC |  |  |  | 60.1 °C | 55.9 °C | 
5 | CNC(=O)c1nnc(NC(=O)C2CC2)cc1Nc1cccc(C(=O)Nc2ccc(N3CCCCC3=O)cc2F)c1OC |  |  |  | 60.8 °C | 56.2 °C | 
6 | CNC(=O)c1nnc(NC(=O)C2CC2)cc1Nc1cccc(C(=O)Nc2ccc(N3CCCC3=O)cc2)c1OC |  |  |  | 61.9 °C | 56.5 °C | 
7 | CNC(=O)c1nnc(Nc2ccccn2)cc1Nc1cccc(C(=O)Nc2ccc(N3CCCCC3=O)cc2)c1OC |  |  |  | 66.5 °C | 64 °C | 
8 | CNC(=O)c1nnc(NC(=O)C2CC2)cc1Nc1cccc(C(=O)Nc2ccc(N3CCCCCC3=O)cc2)c1OC |  |  |  | 64.8 °C | 59.6 °C | 
9 | [2H]C([2H])([2H])NC(=O)c1nnc(NC(=O)C2CC2)cc1Nc1cccc(C(=O)Nc2ccc(N3CCCC3=O)cc2)c1OC | 8.3 nM | 86.9% | 55.1% |  |  | 
10 | [2H]C([2H])([2H])NC(=O)c1nnc(NC(=O)C2CC2)cc1Nc1cccc(C(=O)Nc2ccc(-n3ccnc3)cc2)c1OC | 51 nM |  |  |  |  | 
11 | [2H]C([2H])([2H])NC(=O)c1nnc(NC(=O)C2CC2)cc1Nc1cccc(C(=O)Nc2ccc(N3CCCCC3)cc2)c1OC | 12 nM | 1.91% | 9% |  |  | 
12 | [2H]C([2H])([2H])NC(=O)c1nnc(NC(=O)C2CC2)cc1Nc1cccc(C(=O)Nc2ccc(-n3cccn3)cc2)c1OC | 6.4 nM | 78.5% | 54.9% |  |  | 
13 | CNC(=O)c1nnc(NC(=O)C2CC2)cc1Nc1cccc(C(=O)Nc2ccc(-c3ncn(C)n3)cc2)c1OC |  |  |  | 57 °C | 53.8 °C | 
14 | CNC(=O)c1nnc(NC(=O)C2CC2)cc1Nc1cccc(C(=O)Nc2ccc(-c3cccnc3)cc2)c1OC |  |  |  | 55.5 °C | 54.1 °C | 
15 | [2H]C([2H])([2H])NC(=O)c1nnc(NC(=O)C2CC2)cc1Nc1cccc(C(=O)Nc2ccc(N3CCCCC3=O)cc2)c1OC | 1.4 nM | 50.6% | 53.9% |  |  | 
16 | [2H]C([2H])([2H])NC(=O)c1nnc(NC(=O)C2CC2)cc1Nc1cccc(C(=O)Nc2ccc(C3CCCNC3=O)cc2)c1OC (centres undefined) | 1.8 nM | 41.8% | 44.8% |  |  | 
17 | CNC(=O)c1nnc(NC(=O)C2CC2)cc1Nc1cccc(C(=O)Nc2ccc(N3CCCCC3=O)cc2)c1OC |  |  |  | 66.6 °C | 60.6 °C | 
18 | [2H]C([2H])([2H])NC(=O)c1nnc(NC(=O)C2CC2)cc1Nc1cccc(C(=O)Nc2ccc(-c3ccc(F)c(=O)[nH]3)cc2)c1OC | 13 nM | 81.8% | 58.2% |  |  | 
19 | [2H]C([2H])([2H])NC(=O)c1nnc(NC(=O)C2CC2)cc1Nc1cccc(C(=O)Nc2ccc(-n3ccccc3=O)cc2)c1OC | 3.2 nM | 75.8% | 71.3% |  |  | 
20 | CNC(=O)c1nnc(NC(=O)C2CC2)cc1Nc1cccc(C(=O)Nc2ccc(-c3ncn(C4CC4)n3)cc2)c1OC |  |  |  | 62 °C | 57 °C | Active
21 | [2H]C([2H])([2H])NC(=O)c1nnc(NC(=O)C2CC2)cc1Nc1cccc(C(=O)Nc2cccc(-n3ccccc3=O)c2)c1OC | 11 nM |  |  |  |  | 

Row | Structure (SMILES) | IC50 [1] | remaining at 1 h [2] | remaining at 1 h [3] | Tm [4] | Tm [5] | Activity (Mus musculus)
22 | [2H]C([2H])([2H])NC(=O)c1nnc(NC(=O)C2CC2)cc1Nc1cccc(C(=O)Nc2ccc(N3CCCCCC3=O)cc2)c1OC | 2.5 nM | 0.39% | 5.63% |  |  | 
23 | [2H]C([2H])([2H])NC(=O)c1nnc(NC(=O)C2CC2)cc1Nc1cccc(C(=O)Nc2ccc(NC(=O)C3CCCC3)cc2)c1OC | 10 nM |  |  |  |  | 
24 | [2H]C([2H])([2H])NC(=O)c1nnc(Nc2ccc(F)cn2)cc1Nc1cccc(C(=O)Nc2ccc(N3CCCCC3=O)cc2)c1OC | 1 nM | 39.9% | 27.5% |  |  | 
25 | CNC(=O)c1nnc(NC(=O)C2CC2)cc1Nc1cccc(C(=O)Nc2ccc(N3CCCCC3)cc2)c1OC |  |  |  | 63.4 °C | 58.2 °C | 
26 | [2H]C([2H])([2H])NC(=O)c1nnc(NC(=O)C2CC2)cc1Nc1cccc(C(=O)Nc2ccc(-c3cccc(=O)[nH]3)cc2)c1OC | 55 nM |  |  |  |  | 
27 | CNC(=O)c1nnc(NC(=O)C2CC2)cc1Nc1cccc(C(=O)Nc2ccc(N3CCCCC3=O)c(Cl)c2)c1OC |  |  |  | 65.5 °C | 60.4 °C | 
28 | [2H]C([2H])([2H])NC(=O)c1nnc(NC(=O)C2CC2)cc1Nc1cccc(C(=O)Nc2ccc(N3CCCCS3(=O)=O)cc2)c1OC | 1.9 nM | 3.26% | 18.2% |  |  | 
29 | CNC(=O)c1nnc(NC(=O)C2CC2)cc1Nc1cccc(C(=O)Nc2ccc(NC(=O)C3CCCC3)cc2)c1OC |  |  |  | 56.2 °C | 52.7 °C | 
30 | [2H]C([2H])([2H])NC(=O)c1nnc(Nc2ccccn2)cc1Nc1cccc(C(=O)Nc2ccc(N3CCCCC3=O)cc2)c1OC | 0.81 nM | 44.5% | 23% |  |  | 
31 | CNC(=O)c1nnc(NC(=O)C2CC2)cc1Nc1cccc(C(=O)Nc2ccc(-n3cccn3)cc2)c1OC |  |  |  | 61.1 °C | 56.2 °C | 
32 | [2H]C([2H])([2H])NC(=O)c1nnc(NC(=O)C2CC2)cc1Nc1cccc(C(=O)Nc2ccc(N3CCCCC3=O)cc2F)c1OC | 5.7 nM | 37.8% | 36.6% |  |  | 
33 | CCn1cnc(-c2ccc(NC(=O)c3cccc(Nc4cc(NC(=O)C5CC5)nnc4C(=O)NC)c3OC)cc2)n1 |  |  |  | 58.2 °C | 54.9 °C | 
34 | CNC(=O)c1nnc(NC(=O)C2CC2)cc1Nc1cccc(C(=O)Nc2ccc(C3CCCNC3=O)cc2)c1OC (centres undefined) |  |  |  | 70.2 °C | 60.1 °C | 
35 | CNC(=O)c1nnc(NC(=O)C2CC2)cc1Nc1cccc(C(=O)Nc2ccc(-n3ccnc3)cc2)c1OC |  |  |  | 54 °C | 52.2 °C | 
36 | CNC(=O)c1nnc(NC(=O)C2CC2)cc1Nc1cccc(C(=O)Nc2ccc(N3CCCCS3(=O)=O)cc2)c1OC |  |  |  | 64.8 °C | 58.7 °C | 
37 | CNC(=O)c1nnc(NC(=O)C2CC2)cc1Nc1cccc(C(=O)Nc2ccc(-c3cccc(=O)[nH]3)cc2)c1OC |  |  |  | 56.5 °C | 52.5 °C | 
38 | CNC(=O)c1nnc(NC(=O)C2CC2)cc1Nc1cccc(C(=O)Nc2cccc(-n3ccccc3=O)c2)c1OC |  |  |  | 57.6 °C | 52.9 °C | 
39 | [2H]C([2H])([2H])NC(=O)c1nnc(NC(=O)C2CC2)cc1Nc1cccc(C(=O)Nc2ccc(-c3ncn(CC)n3)cc2)c1OC | 43 nM |  |  |  |  | 
40 | CNC(=O)c1nnc(Nc2ccc(F)cn2)cc1Nc1cccc(C(=O)Nc2ccc(N3CCCCC3=O)cc2)c1OC |  |  |  | 68.8 °C | 66 °C | 
41 | [2H]C([2H])([2H])NC(=O)c1nnc(NC(=O)C2CC2)cc1Nc1cccc(C(=O)Nc2ccc(-c3ncn(C)n3)cc2)c1OC | 14 nM |  |  |  |  | 
